Laboratory results: paper PMC6947424, “New Targeted Gold Nanorods for the Treatment of Glioblastoma by Photodynamic Therapy” (Journal of Clinical Medicine, 2019)
Values joined by “and” are separate entries in the source; they are usually repeats but may differ in a detail not shown here. Equal values may be shown once. Read-outs that look alike come from different tables or passages of the source. Residues, ends and D or L forms follow the SMILES beside them. *: point of attachment. Pyropheophorbide(a) = C=Cc1c(C)c2cc3nc(c4c5[nH]c(cc6nc(cc1[nH]2)C(C)=C6CC)c(C)c5C(=O)C4)[C@@H](CCC(=O)*)[C@@H]3C; Hexanoyl(6-maleimido) = O=C1C=CC(=O)N1CCCCCC(=O)*

How the values were obtained:
[1] = Fluorescence emission (quantum yield and lifetime); assay type: physicochemical; settings: ethanol; for τf (fluorescence lifetime): TCSPC, single exponential fit; for Φf (fluorescence quantum yield): excitation 412 nm, TPP in toluene as standard, 25 °C
Description: (§1) The setup and the protocol to evaluate the photophysical characterizations including the absorption, fluorescence, and singlet oxygen emission spectra in addition to the fluorescence and singlet oxygen lifetimes have been previously described by our team. The absorption spectra were recorded on a UV-3600 UV–vis double beam spectrophotometer (Shimadzu, Marne La Vallée, France) in the wavelength range of 200-800 nm. The measurements were performed on the molecules dispersed in ethanol in quartz cuvettes with an optical path of 10 mm. The fluorescence spectra were recorded on a Horiba Jobin Yvon Fluorolog-3 (FL3-222) spectrofluorimeter equipped with a 450W xenon lamp, a thermostated cell compartment (25 °C), a R928 (Hamamatsu, Massy, France) UV–vis photomultiplier and a liquid nitrogen cooled InGaAs infrared detector (DSS-16A020L Electro-Optical System Inc., Phoenixville, PA, USA). The excitation spectrometer used is a SPEX double grating monochromator (1200 grooves per mm blazed at 330 nm). The fluorescence was measured using the UV–vis detector through a SPEX double grating monochromator (600 grooves per mm blazed at 500 nm). The singlet oxygen production was measured using the IR detector through a SPEX double grating monochromator (600 grooves per mm blazed at 1 μm).
(§2) Fluorescence quantum yields (Φf) were determined using a tetraphenyl porphyrin (TPP) solution as the fluorescence standard (Φf = 0.11 in toluene, taking into account solvent refractive index and absorption efficiencies. For the direct determination of ^1O2 quantum yield (ΦΔ), excitation was performed with a Xe-arc, the light was separated in a SPEX 1680, 0.22 µm double monochromator. Detection at 1270 nm was carried out through a PTI S/N 1565 monochromator and the emission was monitored by a liquid nitrogen cooled Ge-detector (EO-817L, North Coast Scientific Co, OH, USA). Rose Bengal (RB) was chosen as a reference solution because of its high ^1O2 quantum yield in EtOH (ΦΔ = 0.68). The absorbance value at the excitation wavelengths (412 nm) of both the reference and the sample solutions were set to approximately 0.2 by dilution. The samples were all prepared in ethanol.
The quantum yield of fluorescence is determined by the equation (1):(1) Φf=Φf0×If/If0×[…]×(n/n0)^2 where Φf and Φf0, If and If0, DO and DO0, n and n0 are the quantum yields, intensities, optical densities and refraction indices of the sample and reference, respectively.
(§3) Fluorescence lifetimes were measured by Time-Correlated Single Photon Counting (TCSPC) using for excitation a pulsed laser diode LDH-P-C-405 coupled with a PDL 800-D driver (both from PicoQuant GmbH, Berlin, Germany) emitting at 408 nm (FWHM < 70 ps, 1 MHz) and an SPCM-AQR-15 avalanche photodiode (EG & G, Vaudreuil, Canada) coupled with a 650 nm (±10 nm) interference long-wave pass filter as the detection system. The acquisition system was a PicoHarp 300 module with a PHR-800 four-channel router (both from PicoQuant GmbH, Berlin, Germany). Fluorescence decays were recorded using the single photon counting method (four optical faced quartz cells for pure products in ethanol). Data were collected, and up to 1000 counts were accumulated in the maximum channel and analyzed using Fluofit TCSPC software (PicoQuant GmbH, Berlin, Germany) based on iterative reconvolution using a Levensberg-Marquandt algorithm. Singlet oxygen lifetime measurements have been performed on a TEMPRO-01 spectrophotometer (Horiba Jobin Yvon, Palaiseau, France). The apparatus was composed of a pulsed diode excitation source SpectraLED-415 emitting at 415 nm, a cuvette compartment, a Seya–Namioka type emission monochromator (600–2000 nm), and an H10330-45 near-infrared photomultiplier tube with a thermoelectric cooler (Hamamatsu, Massy, France) as the detection system. The system was monitored by a single photon counting controller FluoroHub-B and the software DataStation and DAS6 (Horiba Jobin Yvon, Palaiseau, France). […]

[2] = Singlet oxygen production (quantum yield and lifetime); assay type: physicochemical; settings: ethanol; for ΦΔ (singlet oxygen quantum yield): excitation 412 nm, detection 1270 nm, Rose Bengal as reference
Description: as §1, §2
The quantum yield of singlet oxygen production is determined by the equation (2):(2) ΦΔ=ΦΔ0×I/I0×[…] where ΦΔ and ΦΔ0, I and I0, DO and DO0 are the luminescence quantum yields of singlet oxygen, the luminescence intensities and the optical densities of the sample and reference, respectively.
as §3

[3] = Estimation of PS or peptide loading / molar extinction coefficient; assay type: physicochemical; settings: water, 381 nm, from calibration curve
Description: The loading of the PS onto the AuNRs was estimated relying on the molar extinction coefficient (ε) calculated for the MI-K(Pyro)DKPPR-OH conjugate. A calibration curve was developed based on the different concentrations of the conjugate, in water, that correspond to different optical densities (OD). The ε was determined using Beer Lambert’s Law at 381 nm, which constitutes the wavelength of the Soret band of Pyro in water. (3) A = εLC where A, ε, L and C stand for the absorption (OD), molar absorptivity (extinction, L·mol^−1·cm^−1), length (cm) and concentration (mol·L^−1).
The concentration of Pyro in AuNRs@PEG-MI-K(Pyro)DKPPR-OH was calculated for a mass concentration of 1 mg·mL^−1. Moreover, the concentration of the peptide was also determined, as only 1 peptide unit is conjugated to 1 PS molecules. On this basis, the amount of peptide was also estimated to 1 mg·mL^−1 of the functionalized AuNRs.

[4] = in methanol; ref [16]; cited from earlier work
Description: Fluorescence quantum yields (Φf) were determined using a tetraphenyl porphyrin (TPP) solution as the fluorescence standard (Φf = 0.11 in toluene, taking into account solvent refractive index and absorption efficiencies. For the direct determination of ^1O2 quantum yield (ΦΔ), excitation was performed with a Xe-arc, the light was separated in a SPEX 1680, 0.22 µm double monochromator. Detection at 1270 nm was carried out through a PTI S/N 1565 monochromator and the emission was monitored by a liquid nitrogen cooled Ge-detector (EO-817L, North Coast Scientific Co, OH, USA). Rose Bengal (R ... || These findings are also consistent with the Φf value of Pyro reported by other authors (Φf = 0.3 and in methanol). […] This property can serve in the ...

[5] = tends to aggregate easily; ref [3],[4],[14],[86]; cited from earlier work

SMILES | τf (fluorescence lifetime) [1] [ns] | Φf (fluorescence quantum yield) [1] | τΔ (singlet oxygen lifetime) [2] [μs] | ΦΔ (singlet oxygen quantum yield) [2] | molar extinction coefficient (ε) [3] [L/mol/cm] | Φf (fluorescence quantum yield) [4] | solubility in biological media [5]
C=Cc1c(C)c2cc3nc(c4c5[nH]c(cc6nc(cc1[nH]2)C(C)=C6CC)c(C)c5C(=O)C4)[C@@H](CCC(=O)NCCCC[C@H](NC(=O)CCCCCN1C(=O)C=CC1=O)C(=O)N[C@@H](CC(=O)O)C(=O)N[C@@H](CCCCN)C(=O)N1CCC[C@H]1C(=O)N1CCC[C@H]1C(=O)N[C@@H](CCCNC(=N)N)C(=O)O)[C@@H]3C [MI-K(Pyro)DKPPR-OH] ({Hexanoyl(6-maleimido)}-K(Pyropheophorbide(a))DKPPR-OH) | 6.5 | 0.29 | 13 | 0.39 | 64012 | – | –
C=Cc1c(C)c2cc3nc(c4c5[nH]c(cc6nc(cc1[nH]2)C(C)=C6CC)c(C)c5C(=O)C4)[C@@H](CCC(=O)O)[C@@H]3C [Pyro, pyropheophorbide-a, reference compound] | 6.8 | 0.38 | 14 | 0.5 and 0.51 | – | 0.3 | poorly soluble in biological media
